{"source": "patent US11795151B2", "about": "“Benzotriazole compound” (MIYOSHI OIL & FAT CO., LTD., priority 2017, dated 2023)"}
{"assay": "Evaluation of UV absorption performance (2): absorbance spectra in chloroform", "assay_type": "physicochemical", "details": "100 μM, 10-mm quartz cell", "description": "Compounds 11 to 28 were diluted with 100 μM of chloroform and placed in a 10-mm quartz cell, and the absorbance spectra were measured using an ultraviolet-visible spectrophotometer (V-550, manufactured by JASCO Corporation)(FIGS. 11,12,14 to 29).\nThe absorption peak (maximum absorption wavelength: max) and absorbance in the wavelength range of 350 to 390 nm were read from the absorption spectra of Compounds 11 to 28, and a molar extinction coefficient (maximum molar extinction coefficient: εmax) of the peak was obtained by the following formula (Table 7): Molar extinction coefficient:εmax(L/(mol·cm))=A:Absorbance/[c:Mol concentration(mol/L)×1:Cell optical length(cm)] [Equation 3]\nIn addition, from the absorption spectra of Compounds 11 to 28, assuming that an intersection of a long-wavelength side absorption spectrum in the absorption peak at 350 to 390 nm and a baseline (a line where the slope of the absorption spectrum at […] is zero) is set as a peak end (for example: FIG. 1), the absolute value of the slope of the absorption peak on the long-wavelength side in the wavelength region at 350 to 390 nm was obtained by the following equation (Table 8): |Slope of absorption peak on long wavelength side in wavelength region of 350 to 390n|=|(Absorbance at peak end−Absorbance at absorption peak in wavelength region of 350 to 390 nm)/(Absorption wavelength at peak end−Wave length at absorption peak in wavelength region of 350 to 390 nm)| [Equation 4]", "units": {"Absorption wavelength at peak end": "nm", "Molar extinction coefficient at peak (maximum molar extinction coefficient: εmax)": "L/mol/cm", "Wave length at absorption peak in wavelength region of 350 to 390 nm (maximum absorption wavelength: λmax)": "nm"}}
{"smiles": "CC(=O)OCCSc1ccc2nn(-c3cc(C)cc(C(C)(C)C)c3O)nc2c1", "note": "[Compound 13]", "Absorbance at absoprtion peak in wavelength region of 350 to 390 nm": 2.22, "Absorbance at peak end": 0.0302, "Absorption wavelength at peak end": 419, "Molar extinction coefficient at peak (maximum molar extinction coefficient: εmax)": 22200, "Wave length at absorption peak in wavelength region of 350 to 390 nm (maximum absorption wavelength: λmax)": 365}
{"smiles": "Cc1cc(-n2nc3ccc(SCCOC(=O)c4ccccc4)cc3n2)c(O)c(C(C)(C)C)c1", "note": "[Compound 14]", "Absorbance at absoprtion peak in wavelength region of 350 to 390 nm": 2.21, "Absorbance at peak end": 0.02594, "Absorption wavelength at peak end": 419, "Molar extinction coefficient at peak (maximum molar extinction coefficient: εmax)": 22100, "Wave length at absorption peak in wavelength region of 350 to 390 nm (maximum absorption wavelength: λmax)": 365}
{"smiles": "CCCCCCCCCCCCCCCCCC(=O)OCCCCCCSc1ccc2nn(-c3cc(C)cc(C(C)(C)C)c3O)nc2c1", "note": "[Compound 16]", "Absorbance at absoprtion peak in wavelength region of 350 to 390 nm": 2.22, "Absorbance at peak end": 0.01846, "Absorption wavelength at peak end": 420, "Molar extinction coefficient at peak (maximum molar extinction coefficient: εmax)": 22200, "Wave length at absorption peak in wavelength region of 350 to 390 nm (maximum absorption wavelength: λmax)": 367}
{"smiles": "CC(=O)Oc1ccc(Sc2ccc3nn(-c4cc(C)cc(C(C)(C)C)c4O)nc3c2)cc1", "note": "[Compound 17]", "Absorbance at absoprtion peak in wavelength region of 350 to 390 nm": 2.24, "Absorbance at peak end": 0.01899, "Absorption wavelength at peak end": 422, "Molar extinction coefficient at peak (maximum molar extinction coefficient: εmax)": 22400, "Wave length at absorption peak in wavelength region of 350 to 390 nm (maximum absorption wavelength: λmax)": 366}
{"smiles": "CCCCCCCCCCCCCCCCCC(=O)Oc1ccc(Sc2ccc3nn(-c4cc(C)cc(C(C)(C)C)c4O)nc3c2)cc1", "note": "[Compound 18]", "Absorbance at absoprtion peak in wavelength region of 350 to 390 nm": 2.22, "Absorbance at peak end": 0.02575, "Absorption wavelength at peak end": 420, "Molar extinction coefficient at peak (maximum molar extinction coefficient: εmax)": 22200, "Wave length at absorption peak in wavelength region of 350 to 390 nm (maximum absorption wavelength: λmax)": 366}
{"smiles": "Cc1cc(-n2nc3ccc(Sc4ccc(OC(=O)c5ccccc5)cc4)cc3n2)c(O)c(C(C)(C)C)c1", "note": "[Compound 19]", "Absorbance at absoprtion peak in wavelength region of 350 to 390 nm": 2.29, "Absorbance at peak end": 0.02244, "Absorption wavelength at peak end": 422, "Molar extinction coefficient at peak (maximum molar extinction coefficient: εmax)": 22900, "Wave length at absorption peak in wavelength region of 350 to 390 nm (maximum absorption wavelength: λmax)": 366}
{"smiles": "CCCCCCCCCCCCCCCCCCNC(=O)OCCCCCCSc1ccc2nn(-c3cc(C)cc(C(C)(C)C)c3O)nc2c1", "note": "[Compound 20]", "Absorbance at absoprtion peak in wavelength region of 350 to 390 nm": 2.20, "Absorbance at peak end": 0.00489, "Absorption wavelength at peak end": 423, "Molar extinction coefficient at peak (maximum molar extinction coefficient: εmax)": 22000, "Wave length at absorption peak in wavelength region of 350 to 390 nm (maximum absorption wavelength: λmax)": 368}
{"smiles": "CC(=O)Nc1ccc(Sc2ccc3nn(-c4cc(C)cc(C(C)(C)C)c4O)nc3c2)cc1", "note": "[Compound 21]", "Absorbance at absoprtion peak in wavelength region of 350 to 390 nm": 2.24, "Absorbance at peak end": 0.00955, "Absorption wavelength at peak end": 424, "Molar extinction coefficient at peak (maximum molar extinction coefficient: εmax)": 22400, "Wave length at absorption peak in wavelength region of 350 to 390 nm (maximum absorption wavelength: λmax)": 369}
{"smiles": "CCCCCCCCCCCCCCCCCC(=O)Nc1ccc(Sc2ccc3nn(-c4cc(C)cc(C(C)(C)C)c4O)nc3c2)cc1", "note": "[Compound 22]", "Absorbance at absoprtion peak in wavelength region of 350 to 390 nm": 2.23, "Absorbance at peak end": 0.01382, "Absorption wavelength at peak end": 424, "Molar extinction coefficient at peak (maximum molar extinction coefficient: εmax)": 22300, "Wave length at absorption peak in wavelength region of 350 to 390 nm (maximum absorption wavelength: λmax)": 369}
{"smiles": "Cc1cc(-n2nc3ccc(Sc4ccc(NC(=O)c5ccccc5)cc4)cc3n2)c(O)c(C(C)(C)C)c1", "note": "[Compound 23]", "Absorbance at absoprtion peak in wavelength region of 350 to 390 nm": 2.34, "Absorbance at peak end": 0.01418, "Absorption wavelength at peak end": 424, "Molar extinction coefficient at peak (maximum molar extinction coefficient: εmax)": 23400, "Wave length at absorption peak in wavelength region of 350 to 390 nm (maximum absorption wavelength: λmax)": 369}
{"smiles": "Cc1cc(-n2nc3ccc(Sc4ccc(NC(=O)c5ccc6ccccc6c5)cc4)cc3n2)c(O)c(C(C)(C)C)c1", "note": "[Compound 24]", "Absorbance at absoprtion peak in wavelength region of 350 to 390 nm": 2.36, "Absorbance at peak end": 0.02, "Absorption wavelength at peak end": 424, "Molar extinction coefficient at peak (maximum molar extinction coefficient: εmax)": 23600, "Wave length at absorption peak in wavelength region of 350 to 390 nm (maximum absorption wavelength: λmax)": 368}
{"smiles": "CCNC(=O)Nc1ccc(Sc2ccc3nn(-c4cc(C)cc(C(C)(C)C)c4O)nc3c2)cc1", "note": "[Compound 25]", "Absorbance at absoprtion peak in wavelength region of 350 to 390 nm": 2.27, "Absorbance at peak end": 0.0174, "Absorption wavelength at peak end": 424, "Molar extinction coefficient at peak (maximum molar extinction coefficient: εmax)": 22700, "Wave length at absorption peak in wavelength region of 350 to 390 nm (maximum absorption wavelength: λmax)": 370}
{"smiles": "CCCCCCCCCCCCCCCCCCNC(=O)Nc1ccc(Sc2ccc3nn(-c4cc(C)cc(C(C)(C)C)c4O)nc3c2)cc1", "note": "[Compound 26]", "Absorbance at absoprtion peak in wavelength region of 350 to 390 nm": 2.17, "Absorbance at peak end": 0.1501, "Absorption wavelength at peak end": 419, "Molar extinction coefficient at peak (maximum molar extinction coefficient: εmax)": 21700, "Wave length at absorption peak in wavelength region of 350 to 390 nm (maximum absorption wavelength: λmax)": 368}
{"smiles": "Cc1cc(-n2nc3ccc(Sc4ccc(NC(=O)Nc5ccccc5)cc4)cc3n2)c(O)c(C(C)(C)C)c1", "note": "[Compound 27]", "Absorbance at absoprtion peak in wavelength region of 350 to 390 nm": 2.39, "Absorbance at peak end": 0.01868, "Absorption wavelength at peak end": 425, "Molar extinction coefficient at peak (maximum molar extinction coefficient: εmax)": 23900, "Wave length at absorption peak in wavelength region of 350 to 390 nm (maximum absorption wavelength: λmax)": 369}
{"smiles": "COc1ccc(NC(=O)Nc2ccc(Sc3ccc4nn(-c5cc(C)cc(C(C)(C)C)c5O)nc4c3)cc2)cc1", "note": "[Compound 28]", "Absorbance at absoprtion peak in wavelength region of 350 to 390 nm": 2.26, "Absorbance at peak end": 0.01853, "Absorption wavelength at peak end": 423, "Molar extinction coefficient at peak (maximum molar extinction coefficient: εmax)": 22600, "Wave length at absorption peak in wavelength region of 350 to 390 nm (maximum absorption wavelength: λmax)": 370}
{"assay": "Evaluation of UV absorption performance (1): absorbance spectra in chloroform", "assay_type": "physicochemical", "details": "100 μM, 10-mm quartz cell", "description": "Compounds 1 to 12 were diluted with 100 μM of chloroform, placed in a 10-mm quartz cell, and the absorbance spectra were measured using an ultraviolet-visible spectrophotometer (V-550, manufactured by JASCO Corporation)(FIGS. 1 to 12).\nThe absorption peak (maximum absorption wavelength: λmax) and absorbance in the wavelength range of 350 to 390 nm were read from the absorption spectra of Compounds 1 to 12, and the molar extinction coefficient of the peak (maximum molar extinction coefficient: εmax) was obtained by the following equation (able 1). Molar extinction coefficient:εmax(L/(mol·cm))=A:Absorbance/[c:Mol concentration(mol/L)×1:Cell optical length(cm)] [Equation 1]\nIn addition, from the absorption spectra of Compounds 1 to 12, assuming that an intersection of a long-wavelength side absorption spectrum in the absorption peak at 350 to 390 nm and a baseline (a line where the slope of the absorption spectrum at 380 to 500 nm is zero) is set as a […] (for example: FIG. 1), the absolute value of the slope of the absorption peak on the long-wavelength side in the wavelength region at 350 to 390 nm was obtained by the following equation: |Slope of absorption peak on long wavelength side in wavelength region of 350 to 390 nm|=|(Absorbance at peak end−Absorbance at absorption peak in wavelength region of 350 to 390 nm)/(Absorption wavelength at peak end−Wave length at absorption peak in wavelength region of 350 to 390 nm)| [Equation 2]", "units": {"Absorption wavelength at peak end": "nm", "Molar extinction coefficient at peak (maximum molar extinction coefficient: εmax)": "L/mol/cm", "Wave length at absorption peak in wavelength region of 350 to 390 nm (maximum absorption wavelength: λmax)": "nm"}}
{"smiles": "CCCCCCCCCCCCC/C=C/C(=O)OCCCCCCSc1ccc2nn(-c3cc(C)cc(C(C)(C)C)c3O)nc2c1", "note": "[Compound 9]", "Absorbance at absorption peak in wavelength region of 350 to 390 nm": 2.14, "Absorbance at peak end": 0.00702, "Absorption wavelength at peak end": 422, "Molar extinction coefficient at peak (maximum molar extinction coefficient: εmax)": 21100, "Wave length at absorption peak in wavelength region of 350 to 390 nm (maximum absorption wavelength: λmax)": 368}
